Reference: patent publication US6284768A, “Src family SH2 domain inhibitors” (Boehringer Ingelheim Pharmaceuticals, Inc., priority 1999, dated 2001)

The molecules below were run against T1, p56lck GST-SH2 (lck SH2 domain) (Homo sapiens, UniProt P06239) (assay: Receptor-ligand equilibrium binding constants by surface plasmon resonance (biosensor), lck SH2 domain). Conditions: Table 1, compounds of formula (II).
T1 construct: GST (N)
Experimental: The general methods for the determination of Receptor-Ligand Kinetic and Equilibrium Binding Constants using Surface Plasmon Resonance as applied to the lck SH2 Domain have been described in: M. M. Morelock, R. H. Ingraham, R. Betageri.
General Biosensor Methods.
The mobile phase buffer, 10 mM HEPES, pH 7.4, 150 mM NaCl, and 0.05% P-20, was maintained at a flow rate of 5 μL/min in all experiments. All buffers and protein solutions were filtered through a 0.2 um filter and degassed immediately before use.
Strepavidin was diluted to 0.25 mg/ml in 20 mM NaOAc buffer, pH 4.5 and immobilized by free amine coupling to approximately 3000 RU for all 4 flow cells from a single sensor chip .
Surface Kd Determinations.
The surface was regenerated by 4μL of 20 mM HCl followed by 4 μL of 150 mM Tris base. The values used in the analysis were the equilibrium plateau values from which the sample refractive index has been subtracted. For the data analyzed for linear function the equilibrium plateau values without the sample refractive index subtracted were used. Free solution Kd determinations. In a 96 well microtiter plate 20 nM SH2 domain suspended in running buffer containing 0.2 mg/ml BSA and 1 mM DT'T was distributed in 100 μL per well. The highest concentration of compound tested was added to the last well and titrated with 2 fold dilutions for a final of 10 concentrations to be run. 25 μL of the mixture was injected over a strepavidin-biotin-ε-aminohexanoic acid-EGQpYEEIPIA surface and regenerated with 4 μL of 20 mM HCl. […], of 150 mM Tris base was injected after every 11 samples. Typically 8 assays were run in an overnight programmed run.

T1 sequence (P06239 127-224 limits assumed): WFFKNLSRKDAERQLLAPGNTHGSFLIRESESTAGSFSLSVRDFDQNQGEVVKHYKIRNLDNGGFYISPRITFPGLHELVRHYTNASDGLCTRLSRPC

For `Cc1ccn(C/C=C/c2ccccc2)c(=O)c1NC(=O)C(Cc1ccc(C(C)(C)C(=O)O)cc1)NC(=O)Cc1ccc2ccccc2c1` (racemic) [Compound 115], which Kd is on record?
Its Kd is 1.2 µM.

For `Cc1ccn(C/C=C/c2ccccc2)c(=O)c1NC(=O)C(Cc1ccc(C(C)(C)C(=O)O)cc1)NC(=O)C(C)(C)c1ccc2ccccc2c1` (racemic) [Compound 116], which Kd is on record?
Its Kd is 3.2 µM.

Which Kd does the source give for `Cc1ccn(CCCCC(C)C)c(=O)c1NC(=O)C(Cc1ccc(C(C)(C)C(=O)O)cc1)NC(=O)OCc1ccccc1` (racemic) [Compound 146, 3-[2'-(R,S)-Benyloxycarbonylamino-3'-[4"-(1'"-carboxy-1'"-methyl)ethyl]benzene]propanoylamino-1-(5-methylhexyl)-4-methyl-2-pyridone] here?
The Kd was 13 µM.

Which Kd does the source give for `COc1ccc(Cn2ccc(C)c(NC(=O)C(Cc3ccc(C(C)(C)C(=O)O)cc3)N(C)C(=O)Cc3ccc4ccccc4c3)c2=O)cc1` (racemic) [Compound 152, 3-[2'-(R,S)-(N-Methyl-N-(2""-naphthylacetyl)amino-3'-[4"-(1'"-carboxy-1'"-methyl)ethyl]benzene]propanoylamino-1-(4-methoxybenzyl)-4-methyl-2-pyridone] here?
The Kd was 4.5 µM.

With `COc1ccc(Cn2cc(/C=C/C(N)=O)c(C)c(NC(=O)C(Cc3ccc(C(C)(C)C(=O)O)cc3)NC(=O)Cc3ccc4ccccc4c3)c2=O)cc1` (racemic) [Compound 221, 3-[2'-(R,S)-(2""-Naphthylacetyl)amino-3'-[4"-(1'"-carboxy-1'"-methyl)ethyl]benzene]propanoylamino-5-acrylamido-1-(4-methoxybenzyl)-4-methyl-2-pyridone] as the molecule, how does the Kd read?
Its Kd is 0.17 µM.

With `COc1ccc(Cn2cc(I)c(C)c(NC(=O)C(Cc3ccc(C(C)(C)C(=O)O)cc3)NC(=O)Cc3ccc4ccccc4c3)c2=O)cc1` (racemic) [Compound 229, 3-[2'-(R,S)-(2""-Naphthylacetyl)amino-3'4"-(1'"-carboxy-1'"-methyl)ethyl]benzene]propanoylamino-5-iodo-1-(4-methoxybenzyl)-4-methyl-2-pyridone] as the molecule, how does the Kd read?
Its Kd is 0.14 µM.

How did the Kd turn out when `COc1ccc(Cn2ccc(C)c(NC(=O)[C@H](Cc3ccc(N(O)C(=O)C(=O)O)cc3)NC(=O)Cc3cccc4ccccc34)c2=O)cc1` [Compound 1, 3-[2'-(S)-(1'"-Naphthylacetyl)amino-3'-[4"-(N-oxalyl, N-hydroxy)amino]benzene]propanoylamino-1-(4-methoxybenzyl)-4-methyl-2-pyridone] was run?
The Kd was 2.3 µM.

`COc1ccc(Cn2ccc(C)c(NC(=O)[C@H](Cc3ccc(C(C)C(=O)O)cc3)NC(=O)Cc3cccc4ccccc34)c2=O)cc1` (stereo partly drawn) [Compound 3] was tested. Which Kd did it give?
Its Kd is 5.1 µM.

Which Kd does the source give for `COc1ccc(Cn2ccc(C)c(NC(=O)[C@H](Cc3ccc(NC(=O)C(=O)O)cc3)NC(=O)OC(C)(C)C)c2=O)cc1` [Compound 4] here?
The Kd was 42.5 µM.

`COc1ccc(Cn2ccc(C)c(NC(=O)[C@H](Cc3ccc(NC(=O)C(=O)O)cc3)NC(=O)Cc3c[nH]c4ccccc34)c2=O)cc1` [Compound 5] was tested. Which Kd did it give?
The Kd was 1.3 µM.

Which Kd does the source give for `COc1ccc(Cn2ccc(C)c(NC(=O)[C@H](Cc3ccc(NC(=O)C(=O)O)cc3)NC(C)=O)c2=O)cc1` [Compound 6] here?
Its Kd is 8.3 µM.

`COc1ccc(Cn2ccc(C)c(NC(=O)[C@H](Cc3ccc(NC(=O)C(=O)O)cc3)NC(=O)Nc3nc4ccccc4s3)c2=O)cc1` [Compound 7] was tested. Which Kd did it give?
Its Kd is over 11 µM.

With `COc1ccc(Cn2ccc(C)c(NC(=O)[C@H](Cc3ccc(C(O)C(=O)O)cc3)NC(=O)Cc3cccc4ccccc34)c2=O)cc1` (stereo partly drawn) [Compound 8, 3-[2'-(S)-(1""-Naphthylacetyl)amino-3'-[4"-(1'"-hydroxy-1'"-carboxy)methyl]benzene]propanoylamino-1-(4-methoxybenzyl)-4-methyl-2-pyridone] as the molecule, how does the Kd read?
The Kd was 0.99 µM.

`COc1ccc(Cn2ccc(C)c(NC(=O)[C@H](Cc3ccc(NC(=O)C(=O)O)cc3)NC(=O)Nc3cccc4ccccc34)c2=O)cc1` [Compound 9] was tested. Which Kd did it give?
The Kd was 64.5 µM.

With `COc1ccc(Cn2ccc(C)c(NC(=O)[C@H](Cc3ccc(NC(=O)C(=O)O)cc3)NC(=O)Cc3csc(N)n3)c2=O)cc1` [Compound 10] as the molecule, how does the Kd read?
The Kd was 6.7 µM.

How did the Kd turn out when `COc1ccc(Cn2ccc(C)c(NC(=O)[C@H](Cc3ccc(NC(=O)C(=O)O)cc3)NC(=O)Cc3sc(N)nc3-c3ccccc3)c2=O)cc1` [Compound 11] was run?
Its Kd is 2.9 µM.

Which Kd does the source give for `Cc1ccn(CC=CCC2CCCCC2)c(=O)c1NC(=O)[C@H](Cc1ccc(CC(=O)O)cc1)NC(=O)Cc1cccc2ccccc12` [Compound 12] here?
The Kd was over 250 µM.

How did the Kd turn out when `COc1ccc(Cn2ccc(C)c(NC(=O)[C@H](Cc3ccc(NC(=O)C(=O)O)cc3)NC(=O)Cc3csc(NC=O)n3)c2=O)cc1` [Compound 13] was run?
Its Kd is 4.6 µM.

Which Kd does the source give for `COc1ccc(Cn2ccc(C)c(NC(=O)[C@H](Cc3ccc(NC(=O)C(=O)O)cc3)NC(=O)c3csc(NS(=O)(=O)c4ccc(Cl)cc4)n3)c2=O)cc1` [Compound 14] here?
The Kd was 4.2 µM.

With `COc1ccc(Cn2ccc(C)c(NC(=O)[C@H](Cc3ccc(NC(=O)C(=O)O)cc3)NC(=O)Cc3nc(-c4ccccc4)sc3C)c2=O)cc1` [Compound 15] as the molecule, how does the Kd read?
The Kd was 1.8 µM.

How did the Kd turn out when `COc1ccc(Cn2ccc(C)c(NC(=O)[C@H](Cc3ccc(NC(=O)C(=O)O)cc3)NC(=O)Cc3csc(-c4cnccn4)n3)c2=O)cc1` [Compound 17] was run?
The Kd was 3.4 µM.

`Cc1ccn(Cc2ccccc2)c(=O)c1NC(=O)[C@H](Cc1ccc(CC(=O)O)cc1)NC(=O)Cc1cccc2ccccc12` [Compound 18] was tested. Which Kd did it give?
Its Kd is 17.7 µM.

For `COc1ccccc1Cn1ccc(C)c(NC(=O)[C@H](Cc2ccc(CC(=O)O)cc2)NC(=O)Cc2cccc3ccccc23)c1=O` [Compound 19], which Kd is on record?
The Kd was 37.2 µM.

`COc1cccc(Cn2ccc(C)c(NC(=O)[C@H](Cc3ccc(CC(=O)O)cc3)NC(=O)Cc3cccc4ccccc34)c2=O)c1` [Compound 20] was tested. Which Kd did it give?
The Kd was 19.4 µM.

How did the Kd turn out when `Cc1ccn(CCc2ccccc2)c(=O)c1NC(=O)[C@H](Cc1ccc(CC(=O)O)cc1)NC(=O)Cc1cccc2ccccc12` [Compound 21] was run?
The Kd was 30.5 µM.

`COc1ccc(Cn2ccc(C)c(NC(=O)[C@H](Cc3ccc(NC(=O)C(=O)O)cc3)NC(=O)Cc3ccc(N(C)C)cc3)c2=O)cc1` [Compound 22] was tested. Which Kd did it give?
The Kd was 1.8 µM.

How did the Kd turn out when `Cc1ccn(Cc2ccccn2)c(=O)c1NC(=O)[C@H](Cc1ccc(CC(=O)O)cc1)NC(=O)Cc1cccc2ccccc12` [Compound 23] was run?
The Kd was 55.7 µM.

For `COc1ccc(Cn2ccc(C)c(NC(=O)[C@H](Cc3ccc(N(O)C(=O)C(=O)O)cc3)NC(=O)Cc3c[nH]c4ccccc34)c2=O)cc1` [Compound 24], which Kd is on record?
The Kd was 2.9 µM.

For `COc1ccc(Cn2ccc(C)c(NC(=O)[C@H](Cc3ccc(NC(=O)C(=O)O)cc3)NC(=O)N(C)c3cccc4ccccc34)c2=O)cc1` [Compound 25], which Kd is on record?
Its Kd is 2.1 µM.

How did the Kd turn out when `COc1ccc(Cn2ccc(C)c(NC(=O)[C@H](Cc3ccc(N(O)C(=O)C(=O)O)cc3)NC(=O)Cc3ccc(N(C)C)cc3)c2=O)cc1` [Compound 26] was run?
Its Kd is 4.3 µM.

How did the Kd turn out when `COc1ccc(Cn2ccc(C)c(NC(=O)[C@H](Cc3ccc(NC(=O)C(=O)O)cc3)NC(=O)Cc3c[nH]c4ccc(O)cc34)c2=O)cc1` [Compound 27] was run?
Its Kd is 2.5 µM.

How did the Kd turn out when `COc1ccc(Cn2ccc(C)c(NC(=O)[C@H](Cc3ccc(NC(=O)C(=O)O)cc3)NC(=O)Cc3c(C)[nH]c4ccccc34)c2=O)cc1` [Compound 28] was run?
Its Kd is 1.1 µM.

With `COc1ccc(Cn2ccc(C)c(NC(=O)[C@H](Cc3ccc(NC(=O)C(=O)O)cc3)NC(=O)CN3CCc4ccccc4C3)c2=O)cc1` [Compound 29] as the molecule, how does the Kd read?
Its Kd is 1.2 µM.

With `COc1ccc(Cn2ccc(C)c(NC(=O)[C@H](Cc3ccc(NC(=O)C(=O)O)cc3)NC(=O)Nc3c(C)ccc4ccccc34)c2=O)cc1` [Compound 30] as the molecule, how does the Kd read?
The Kd was 0.35 µM.

`COc1ccc(Cn2ccc(C)c(NC(=O)[C@H](Cc3ccc(NC(=O)C(=O)O)cc3)NC(=O)CNC(=O)c3ccccc3C(=O)O)c2=O)cc1` [Compound 31] was tested. Which Kd did it give?
The Kd was 0.68 µM.

`COc1ccc(Cn2ccc(C)c(NC(=O)[C@H](Cc3ccc(NC(=O)C(=O)O)cc3)NC(=O)Cc3ccc4ccccc4c3)c2=O)cc1` [Compound 32] was tested. Which Kd did it give?
Its Kd is 0.35 µM.

How did the Kd turn out when `COc1ccc(Cn2ccc(C)c(NC(=O)[C@H](Cc3ccc(NC(=O)C(=O)O)cc3)NC(=O)Cc3ccc([N+](=O)[O-])cc3)c2=O)cc1` [Compound 33] was run?
Its Kd is 3.7 µM.

`COc1ccc(Cn2ccc(C)c(NC(=O)[C@H](Cc3ccc(NC(=O)C(=O)O)cc3)NC(=O)Cc3ccccc3[N+](=O)[O-])c2=O)cc1` [Compound 34] was tested. Which Kd did it give?
The Kd was 2.4 µM.

`COc1ccc(Cn2ccc(C)c(NC(=O)[C@H](Cc3ccc(NC(=O)C(=O)O)cc3)NC(=O)Cc3ccccc3N(C)C)c2=O)cc1` [Compound 35] was tested. Which Kd did it give?
The Kd was 4 µM.

How did the Kd turn out when `COc1ccc(Cn2ccc(C)c(NC(=O)[C@H](Cc3ccc(NC(=O)C(=O)O)cc3)NC(=O)Cc3ccc(Br)cc3)c2=O)cc1` [Compound 36] was run?
Its Kd is 1.5 µM.

How did the Kd turn out when `COc1ccc(Cn2ccc(C)c(NC(=O)[C@H](Cc3ccc(NC(=O)C(=O)O)cc3)NC(=O)Cc3cccc(Br)c3)c2=O)cc1` [Compound 37] was run?
Its Kd is 0.65 µM.

With `COc1ccc(Cn2ccc(C)c(NC(=O)[C@H](Cc3ccc(NC(=O)C(=O)O)cc3)NC(=O)Cc3ccccc3Br)c2=O)cc1` [Compound 38] as the molecule, how does the Kd read?
Its Kd is 3.2 µM.

For `COc1ccc(Cn2ccc(C)c(NC(=O)[C@H](Cc3ccc(NC(=O)C(=O)O)cc3)NC(=O)Cc3ccc(-n4c(C)ccc4C)cc3)c2=O)cc1` [Compound 39], which Kd is on record?
The Kd was 2.3 µM.

Which Kd does the source give for `CCN(CC)c1ccc(CC(=O)N[C@@H](Cc2ccc(NC(=O)C(=O)O)cc2)C(=O)Nc2c(C)ccn(Cc3ccc(OC)cc3)c2=O)cc1` [Compound 40] here?
The Kd was 1.9 µM.

`COc1ccc(Cn2ccc(C)c(NC(=O)[C@H](Cc3ccc(CC(=O)O)cc3)NC(=O)Cc3cc4ccccc4[nH]3)c2=O)cc1` [Compound 41] was tested. Which Kd did it give?
The Kd was 4.7 µM.
